Target: T1, human PTH1 receptor (Homo sapiens, UniProt Q03431)
T1 sequence (Q03431 27-593): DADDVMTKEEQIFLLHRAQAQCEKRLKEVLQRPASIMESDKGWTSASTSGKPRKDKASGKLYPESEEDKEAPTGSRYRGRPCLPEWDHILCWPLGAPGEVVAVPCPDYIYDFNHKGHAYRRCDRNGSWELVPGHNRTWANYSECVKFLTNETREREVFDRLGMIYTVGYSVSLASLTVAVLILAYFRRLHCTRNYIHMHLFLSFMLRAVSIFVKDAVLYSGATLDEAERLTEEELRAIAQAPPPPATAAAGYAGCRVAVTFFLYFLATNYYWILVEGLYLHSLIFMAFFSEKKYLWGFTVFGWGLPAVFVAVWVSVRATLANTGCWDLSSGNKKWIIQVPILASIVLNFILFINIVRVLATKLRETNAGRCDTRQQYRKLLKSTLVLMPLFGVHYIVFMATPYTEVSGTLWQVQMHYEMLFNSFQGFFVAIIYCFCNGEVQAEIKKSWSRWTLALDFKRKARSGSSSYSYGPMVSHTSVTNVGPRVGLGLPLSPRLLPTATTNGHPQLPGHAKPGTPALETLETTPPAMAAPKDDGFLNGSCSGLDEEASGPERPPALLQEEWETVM
Experiment: In vitro cAMP signal activity in HKRK-B7 cells (LLC-PK1 cells overexpressing the human PTH1 receptor)
Format: cell-based
Conditions: HKRK-B7 cells; compound at 1×10^−3 M; cAMP produced as percentage of that produced by hPTH(1-34) at 100 nM

Row | Structure (SMILES) | cAMP production activity (%)
1 | Cc1cc(N2C(=O)NC(COC(C)(C)C)C2=O)cc(C)c1CCS(=O)(=O)N1CCC2(CC1)N=C([C@H]1CC[C@H](C)CC1)NC2=O (stereo partly drawn) [Compound 833, 5-tert-butoxymethyl-3-(3,5-dimethyl-4-{2-[2-(4-methyl-cyclohexyl)-4-oxo-1,3,8-triaza-spiro[4.5]dec-1-ene-8-sulfonyl]-ethyl}-phenyl)-imidazolidine-2,4-dione] | 34
2 | Cc1cc(N(C)C(N)=O)cc(C)c1/C=C/S(=O)(=O)N1CCC2(CC1)N=C(CCCCCCCCCCCCCC(N)=O)NC2=O [Compound 1175, 14-(8-{(E)-2-[2,6-dimethyl-4-(1-methyl-ureido)-phenyl]-ethenesulfonyl}-4-oxo-1,3,8-triaza-spiro[4.5]dec-1-en-2-yl)-tetradecanoic acid amide] | 81
3 | Cc1cc(N(C)C(N)=O)cc(C)c1/C=C/S(=O)(=O)N1CCC2(CC1)N=C(c1cccc(SC(F)(F)F)c1)NC2=O [Compound 1305, 1-(3,5-dimethyl-4-{(E)-2-[4-oxo-2-(3-trifluoromethylsulfanyl-phenyl)-1,3,8-triaza-spiro[4.5]dec-1-ene-8-sulfonyl]-vinyl}-phenyl)-1-methyl-urea] | 138
4 | Cc1cc(C(=O)N2CCN(CCCO)CC2)ccc1CCS(=O)(=O)N1CCC2(CC1)N=C(c1cccc(C(F)(F)F)c1)NC2=O [Compound 366, 8-(2-{4-[4-(3-hydroxy-propyl)-piperazine-1-carbonyl]-2-methyl-phenyl}-ethanesulfonyl)-2-(3-trifluoromethyl-phenyl)-1,3,8-triaza-spiro[4.5]dec-1-en-4-one] | 85
5 | [2H]C([2H])([2H])C([2H])([2H])Oc1cc(C2=NC3(CCN(S(=O)(=O)/C=C/c4c(C)cc(C(=O)N5CCC(C)(O)CC5)cc4C)CC3)C(=O)N2)ccc1F [Compound 1224, 2-(3-[1,1,2,2,2-^2H5]ethoxy-4-fluoro-phenyl)-8-{(E)-2-[4-(4-hydroxy-4-methyl-piperidine-1-carbonyl)-2,6-dimethyl-phenyl]-ethenesulfonyl}-1,3,8-triaza-spiro[4.5]dec-1-en-4-one] | 88
6 | Cc1cc(N(CCF)C(N)=O)cc(C)c1CCS(=O)(=O)N1CCC2(CC1)N=C(C1CCC(CCC(F)(F)F)CC1)NC2=O (stereo not drawn) [Compound 818, 1-[3,5-dimethyl-4-(2-{4-oxo-2-[4-(3,3,3-trifluoro-propyl)-cyclohexyl]-1,3,8-triaza-spiro[4.5]dec-1-ene-8-sulfonyl}-ethyl)-phenyl]-1-(2-fluoro-ethyl)-urea] | 79
7 | Cc1cc(S(=O)(=O)Nc2ccncc2)ccc1CCS(=O)(=O)N1CCC2(CC1)N=C(c1cccc(OC(F)(F)F)c1)NC2=O [Compound 846, 3-methyl-4-{2-[4-oxo-2-(3-trifluoromethoxy-phenyl)-1,3,8-triaza-spiro[4.5]dec-1-ene-8-sulfonyl]-ethyl}-N-pyridin-4-yl-benzenesulfonamide] | 47
8 | O=C1NC(c2ccc(Cl)cc2Cl)=NC12CCN(S(=O)(=O)c1cccc(Cl)c1)CC2 [Compound 50, 8-(3-chloro-benzenesulfonyl)-2-(2,4-dichloro-phenyl)-1,3,8-triaza-spiro[4.5]dec-1-en-4-one] | 26
9 | Cc1cc(C(=O)N(C)C)ccc1CCS(=O)(=O)N1CCC2(CC1)N=C(c1cc(Cl)cc(C(F)(F)F)c1)NC2=O [Compound 127, 4-{2-[2-(3-chloro-5-trifluoromethyl-phenyl)-4-oxo-1,3,8-triaza-spiro[4.5]dec-1-ene-8-sulfonyl]-ethyl}-3,N,N-trimethyl-benzamide] | 72
10 | Cc1cc(C(=O)N(C)C)ccc1CCS(=O)(=O)N1CCC2(CC1)N=C(C1CCC(CCCC(F)(F)F)CC1)NC2=O (stereo not drawn) [Compound 897, 3,N,N-trimethyl-4-(2-{4-oxo-2-[4-(4,4,4-trifluoro-butyl)-cyclohexyl]-1,3,8-triaza-spiro[4.5]dec-1-ene-8-sulfonyl}-ethyl)-benzamide] | 85
11 | O=C1NC(C2CCCCC2)=NC12CCN(S(=O)(=O)/C=C/c1cccc3cc[nH]c13)CC2 [Compound 479, 2-cyclohexyl-8-[(E)-2-(1H-indol-7-yl)-ethenesulfonyl]-1,3,8-triaza-spiro[4.5]dec-1-en-4-one] | 15
12 | CCCc1cc2ccc(C3=NC4(CCN([S@TB18](=O)(=O)/C=C/c5c(C)cc(N(C)C(N)=O)cc5C)CC4)C(=O)N3)cc2o1 [Compound 1127, 1-(3,5-dimethyl-4-{(E)-2-[4-oxo-2-(2-propyl-benzofuran-6-yl)-1,3,8-triaza-spiro[4.5]dec-1-ene-8-sulfonyl]-vinyl}-phenyl)-1-methyl-urea] | 91
13 | CC(=O)Nc1ccc(CCS(=O)(=O)N2CCC3(CC2)N=C(C2CCC(CC(F)F)CC2)NC3=O)c(C)c1 (stereo not drawn) [Compound 1060, N-[4-(2-{2-[4-(2,2-Difluoro-ethyl)-cyclohexyl]-4-oxo-1,3,8-triaza-spiro[4.5]dec-1-ene-8-sulfonyl}-ethyl)-3-methyl-phenyl]-acetamide] | 58
14 | O=C1NC(C2CCCCC2)=NC12CCN(S(=O)(=O)C#Cc1cccc3[nH]ccc13)CC2 [Compound 1377, 2-Cyclohexyl-8-[2-(1H-indol-4-yl)-ethynesulfonyl]-1,3,8-triaza-spiro[4.5]dec-1-en-4-one] | 35
15 | Cc1cc(N(C)C(N)=O)cc(C)c1CCS(=O)(=O)N1CCC2(CC1)N=C(c1ccc(Cl)c(C(F)(F)F)c1)NC2=O [Compound 1150, 1-(4-{2-[2-(4-Chloro-3-trifluoromethyl-phenyl)-4-oxo-1,3,8-triaza-spiro[4.5]dec-1-ene-8-sulfonyl]-ethyl}-3,5-dimethyl-phenyl)-1-methyl-urea] | 107
16 | CN(C(=O)c1cccc(C2=NC3(CCN(S(=O)(=O)c4cccc(Cl)c4)CC3)C(=O)N2)c1)c1ccccc1 [Compound 349, 3-[8-(3-chloro-benzenesulfonyl)-4-oxo-1,3,8-triaza-spiro[4.5]dec-1-en-2-yl]-N-methyl-N-phenyl-benzamide] | 11
17 | Cc1cc(CO)cc(C)c1CCS(=O)(=O)N1CCC2(CC1)N=C(C1CCC(CCC(F)(F)F)CC1)NC2=O (stereo not drawn) [Compound 770, 8-[2-(4-hydroxymethyl-2,6-dimethyl-phenyl)-ethanesulfonyl]-2-[4-(3,3,3-trifluoro-propyl)-cyclohexyl]-1,3,8-triaza-spiro[4.5]dec-1-en-4-one] | 105
18 | Cc1cc(C(=O)N(C)C)ccc1CCS(=O)(=O)N1CCC2(CC1)N=C(c1cccc(OC(F)(F)F)c1)NC2=O [Compound 99, 3,N,N-trimethyl-4-{2-[4-oxo-2-(3-trifluoromethoxy-phenyl)-1,3,8-triaza-spiro[4.5]dec-1-ene-8-sulfonyl]-ethyl}-benzamide] | 80
19 | Cc1cc(C(=O)N2CCC(O)(CF)CC2)cc(C)c1/C=C/S(=O)(=O)N1CCC2(CC1)N=C(c1ccc(OC(F)(F)F)cc1)NC2=O [Compound 1269, 8-{(E)-2-[4-(4-fluoromethyl-4-hydroxy-piperidine-1-carbonyl)-2,6-dimethyl-phenyl]-ethenesulfonyl}-2-(4-trifluoromethoxy-phenyl)-1,3,8-triaza-spiro[4.5]dec-1-en-4-one] | 92
20 | Cc1cc(N(C)C(N)=O)c(C)cc1CCS(=O)(=O)N1CCC2(CC1)N=C(C1CCC(C)CC1)NC2=O (stereo not drawn) [Compound 680, 1-(2,5-dimethyl-4-{2-[2-(4-methyl-cyclohexyl)-4-oxo-1,3,8-triaza-spiro[4.5]dec-1-ene-8-sulfonyl]-ethyl}-phenyl)-1-methyl-urea] | 101
21 | Cc1cc(N2C[C@H](CO)OC2=O)ccc1CCS(=O)(=O)N1CCC2(CC1)N=C(c1cccc(C(F)(F)F)c1)NC2=O [Compound 296, 8-{2-[4-((R)-5-hydroxymethyl-2-oxo-oxazolidin-3-yl)-2-methyl-phenyl]-ethanesulfonyl}-2-(3-trifluoromethyl-phenyl)-1,3,8-triaza-spiro[4.5]dec-1-en-4-one] | 65
22 | Cc1cc(N(C)C(N)=O)cc(C)c1CCS(=O)(=O)N1CC2(C1)N=C(c1cccc(OC(F)(F)F)c1)NC2=O [Compound 941, 1-(3,5-dimethyl-4-{2-[8-oxo-6-(3-trifluoromethoxy-phenyl)-2,5,7-triaza-spiro[3.4]oct-5-ene-2-sulfonyl]-ethyl}-phenyl)-1-methyl-urea] | 21
23 | CC(=O)Nc1ccc(CCS(=O)(=O)N2CCC3(CC2)N=C([C@H]2CC[C@H](CC=C(F)F)CC2)NC3=O)c(C)c1 [Compound 1067, N-[4-(2-{2-[4-(3,3-difluoro-allyl)-cyclohexyl]-4-oxo-1,3,8-triaza-spiro[4.5]dec-1-ene-8-sulfonyl}-ethyl)-3-methyl-phenyl]-acetamide] | 69
24 | COC(=O)N(C)c1ccc(/C=C/S(=O)(=O)N2CCC3(CC2)N=C(c2cccc(OC(F)(F)F)c2)NC3=O)c(C)c1 [Compound 467, methyl-(3-methyl-4-{(E)-2-[4-oxo-2-(3-trifluoromethoxy-phenyl)-1,3,8-triaza-spiro[4.5]dec-1-ene-8-sulfonyl]-vinyl}-phenyl)-carbamic acid methyl ester] | 60
